US20260335298A1, “PHARMACEUTICAL COMBINATION CONTAINING DONEPEZIL AND RIVASTIGMINE FOR PREVENTING, ALLEVIATING OR TREATING DEMENTIA OR COGNITIVE IMPAIRMENT, AND PREPARATION METHOD THEREFOR” (G2GBIO, INC., priority 2022, published 2026)

Key:
[1] = tested on: AChE; details: patients taking donepezil in a long-term; cited from earlier work
[2] = tested on: AChE mRNA (APP-H4 cells); assay: AChE mRNA expression in APP-H4 cell line (qRT-PCR, FIGS. 5 and 6); type: cell-based, human; details: 24 h
Source text: An APP-H4 cell line is known as a dementia model cell line in which an abnormal segment of Amyloid Precursor Protein (APP) is increased by β-secretase and Alzheimer's disease and hyperphosphorylation of a Tau protein are induced by introducing a Swedish mutation of APP into human neuroglioblastoma H4 cells. In order to re-verify the effect of combined administration of the donepezil and the rivastigmine on the AChE mRNA expression and the drug combination ratio confirmed through a previous study, APP-H4 cells were treated with the donepezil and the rivastigmine alone or in combination as active ingredients, and the AChE gene expression was analyzed.
Specifically, the APP-H4 cell line was cultured in DMEM including 10% fetal bovine serum and gentamycine. Gene expression comparative analysis was performed by treating cells with donepezil 50 (19 μg/ml) μM alone or with donepezil 50 μM and rivastigmine 1 or 5 (1.25 μg/ml) μM as a final concentration in combination and performing qRT-PCR as in the previous experiment method (primers are shown in Table 4 below).
APP-H4 cells were treated with the donepezil and the rivastigmine alone or in combination and cultured for 24 hours, and then the AChE mRNA expression level was measured by qRT-PCR method.

[3] = tested on: AChE mRNA (SH-SY5Y cells); assay: AChE mRNA expression in SH-SY5Y cell line (qRT-PCR, FIGS. 2 to 4); type: cell-based, human
Protocol: Specifically, the SH-SY5Y cell line was cultured in a 6-well plate (6×10^5/well) using high-glucose Dulbecco's modified Eagle medium (DMEM) added with 10% fetal bovine serum and penicillin-streptomycin. SH-SY5Y cells were treated with the donepezil at final concentrations of 10, 20, 30, 40 (15.2 μg/ml) μM, or the rivastigmine at 0.01, 0.1, 0.5, 1, 5 (1.25 μg/ml) μM and cultured for 24 hours, and then, a total RNA was extracted from each cell using TRIzol, and cDNA was synthesized using a SuperScriptIII cDNA synthesis kit. Quantitative real-time PCR (qRT-PCR) was performed using the synthesized cDNA and primers and SYBR Green in Table 3 below using QuantStudio 3. In order to confirm amplification and accumulation of a target gene in real time, the qRT-PCR was performed under a condition that a cycle of 95° C. for 15 seconds and 60° C. for 1 minute was reacted 40 times after an initial denaturation reaction was performed at 50° C. for 2 minutes and 95° C. for 10 minutes.
A gene expression level amplified by the Comparative Ct Method which is one of methods for quantifying a specific gene expression level was calculated, and analysis results are shown in FIGS. 2 to 4.
[Relational Expression of AChE mRNA Expression Level Analysis for Each Sample]
ΔCt value=Ct value of AChE in each sample−Ct value of reference gene (GAPDH) in the sample.
(Here, Ct refers to a cycle number in which amplification begins to increase clearly during a PCR process.)
Specifically, the SH-SY5Y cell line was cultured in a 6-well plate (6×10^5/well) using DMEM added with 10% fetal bovine serum and penicillin-streptomycin. Gene expression comparative analysis was performed by treating the SH-SY5Y cells with donepezil alone or with donepezil and rivastigmine in combination and performing qRT-PCR as in the previous experiment method.
Specifically, the gene expression comparative analysis was performed by treating the SH-SY5Y cells with donepezil 20 μM alone and with donepezil 20 μM and rivastigmine 0.1, 0.5, 1, and 5 μM as a final concentration in combination and performing qRT-PCR as in the previous experiment method.

Row | SMILES | AChE activity and quantity [1] | AChE expression ([2]; 50 μM donepezil, FIG. 6) | AChE mRNA expression ([3]; 5 μM (1.9 μg/ml) donepezil alone, FIG. 3) | AChE mRNA expression ([3]; donepezil alone, beyond 20 μM (30, 40 μM), 24 h, FIG. 2) | AChE mRNA expression ([3]; donepezil alone, up to 20 μM, 24 h, FIG. 2) | AChE mRNA expression ([2]; rivastigmine alone, 0.5, 1, or 10 μM, FIG. 5) | AChE mRNA expression ([3]; rivastigmine alone, 0.01 to 5 μM, 24 h, FIG. 2)
1 | COc1cc2c(cc1OC)C(=O)C(CC1CCN(Cc3ccccc3)CC1)C2 (stereo not shown) [donepezil] | increases | increased | increased | no difference | dependently increased | – | –
2 | CCN(C)C(=O)Oc1cccc([C@H](C)N(C)C)c1 [rivastigmine] | – | – | – | – | – | no effect | no statistically significant change was observed
